In patent US20110039762A1, “TARGETED ANTIMICROBIAL MOIETIES” (C3 JIAN, INC., priority 2009, published 2011):
“Also recorded” adds a separate entry of the source.

Test system: microorganisms (e.g., bacteria, yeasts, fungi)
Assay: Targeting peptide binding to target microorganisms (Table 3)
Conditions: microorganism(s) the targeting peptide binds; binding in aqueous buffers depending on peptide solubility, preferably 1x PBS

Question: Which “Target(s)” value does the source give for “PF-210 (EREDGCDAMPLP; Peptide with targeting and/or antimicrobial activity)” here?
Answer: S. epidermidis and P. aeruginosa and C. albicans and MRSA and E. faecalis and C. jeikeium and C. jejuni

Question: Which “Target(s)” value does the source give for “PF-213 (MTTGVDFIIEKV; Peptide with targeting and/or antimicrobial activity)” here?
Answer: S. epidermidis

Question: For “PF-214 (GHLRVCWVFSASLLTPFRSATLI; Peptide with targeting and/or antimicrobial activity)”, which “Target(s)” value is on record?
Answer: S. mutans; also recorded: S. epidermidis; also recorded: M. luteus; also recorded: E. coli; also recorded: P. aeruginosa; also recorded: A. baumannii

Question: How did the “Target(s)” value turn out when “PF-216 (ESVDKITEALEEDGFPAKVQ; Peptide with targeting and/or antimicrobial activity)” was run?
Answer: S. mutans; also recorded: E. coli

Question: For “PF-217 (DWEFTHKTIPQKK; Peptide with targeting and/or antimicrobial activity)”, which “Target(s)” value is on record?
Answer: S. mutans

Question: Which “Target(s)” value does the source give for “PF-218 (SETPEKPVGTFFYSIYYKIIL; Peptide with targeting and/or antimicrobial activity)” here?
Answer: S. epidermidis; also recorded: M. luteus; also recorded: P. aeruginosa; also recorded: A. baumannii

Question: For “PF-219 (FLALAVIAGLFKVILIYAAPYLK; Peptide with targeting and/or antimicrobial activity)”, which “Target(s)” value is on record?
Answer: S. epidermidis; also recorded: M. luteus; also recorded: P. aeruginosa; also recorded: A. baumannii

Question: How did the “Target(s)” value turn out when “PF-221 (VFDNIDINF; Peptide with targeting and/or antimicrobial activity)” was run?
Answer: S. epidermidis; also recorded: M. luteus; also recorded: P. aeruginosa

Question: For “PF-223 (VKFCIECQTKLERKRR; Peptide with targeting and/or antimicrobial activity)”, which “Target(s)” value is on record?
Answer: S. epidermidis; also recorded: M. luteus; also recorded: A. baumannii

Question: Which “Target(s)” value does the source give for “PF-225 (MNCASPEFKKLMELYK; Peptide with targeting and/or antimicrobial activity)” here?
Answer: S. epidermidis

Question: With “PF-228 (NQLGSQAFAQL; Peptide with targeting and/or antimicrobial activity)” as the substance, how does the “Target(s)” value read?
Answer: S. mutans

Question: How did the “Target(s)” value turn out when “PF-229 (DPILIQIGFTRFALRKAEAEKIEIQVEEGVPA; Peptide with targeting and/or antimicrobial activity)” was run?
Answer: S. epidermidis; also recorded: M. luteus; also recorded: P. aeruginosa; also recorded: A. baumannii

Question: How did the “Target(s)” value turn out when “PF-230 (EDKPTNTIQEIKPVKWQ; Peptide with targeting and/or antimicrobial activity)” was run?
Answer: S. mutans

Question: For “PF-231 (AVRDFKKSVREEDEAASLNSPRTIDAQVKTSESTSVKS; Peptide with targeting and/or antimicrobial activity)”, which “Target(s)” value is on record?
Answer: S. mutans

Question: Which “Target(s)” value does the source give for “PF-232 (FDQLYALEREGKLDELLA; Peptide with targeting and/or antimicrobial activity)” here?
Answer: S. epidermidis; also recorded: M. luteus

Question: Which “Target(s)” value does the source give for “PF-236 (KEIRTATVAELNAKRRLTSAEQALAEVS; Peptide with targeting and/or antimicrobial activity)” here?
Answer: S. mutans; also recorded: S. epidermidis; also recorded: E. coli; also recorded: C. albicans; also recorded: S. pneumoniae; also recorded: E. faecalis

Question: With “PF-237 (YVKPKVGVHE; Peptide with targeting and/or antimicrobial activity)” as the substance, how does the “Target(s)” value read?
Answer: S. epidermidis

Question: With “PF-238 (RNAVVVTEATFPKYEEEITNYLNRRFGEDWSLKLEKCSVA; Peptide with targeting and/or antimicrobial activity)” as the substance, how does the “Target(s)” value read?
Answer: S. mutans and S. epidermidis and E. coli and P. aeruginosa and C. albicans and MRSA and S. pneumoniae and E. faecalis

Question: Which “Target(s)” value does the source give for “PF-239 (PKHNVVTGVSVDLDYKP; Peptide with targeting and/or antimicrobial activity)” here?
Answer: S. mutans; also recorded: E. coli

Question: How did the “Target(s)” value turn out when “PF-240 (RITEVPPDEHSDR; Peptide with targeting and/or antimicrobial activity)” was run?
Answer: S. mutans; also recorded: E. coli

Question: “PF-242 (KLFEDPLIKSKAVENFQTTWHEQCLAKELAKNM; Peptide with targeting and/or antimicrobial activity)” was tested. Which “Target(s)” value did it give?
Answer: S. mutans; also recorded: E. coli

Question: For “PF-244 (HMRTISYLLAFAKFSLFIPPKQSLKRL; Peptide with targeting and/or antimicrobial activity)”, which “Target(s)” value is on record?
Answer: S. epidermidis; also recorded: M. luteus; also recorded: P. aeruginosa; also recorded: A. baumannii

Question: With “PF-245 (MNDVKPVVQPKQTLKAFLVQLLSVRAGVYIKQNNQLPKTKG; Peptide with targeting and/or antimicrobial activity)” as the substance, how does the “Target(s)” value read?
Answer: S. epidermidis; also recorded: M. luteus; also recorded: P. aeruginosa; also recorded: A. baumannii

Question: With “PF-246 (QPDEKAEFFDPSLDKVYRHPTFYHIPDGIEHM; Peptide with targeting and/or antimicrobial activity)” as the substance, how does the “Target(s)” value read?
Answer: S. mutans

Question: “PF-247 (ETAASETH; Peptide with targeting and/or antimicrobial activity)” was tested. Which “Target(s)” value did it give?
Answer: S. epidermidis

Question: Which “Target(s)” value does the source give for “PF-248 (ILSKLWFWMINSLGVVLLVSYWLLAKWGVA; Peptide with targeting and/or antimicrobial activity)” here?
Answer: S. mutans; also recorded: S. epidermidis; also recorded: M. luteus; also recorded: E. coli; also recorded: P. aeruginosa; also recorded: A. baumannii

Question: For “PF-253 (VRDDDS; Peptide with targeting and/or antimicrobial activity)”, which “Target(s)” value is on record?
Answer: S. epidermidis; also recorded: M. luteus

Question: With “PF-254 (FIYGVGFVPHFWLWKWLFSPWIAWPLMLLGYYIWFLT; Peptide with targeting and/or antimicrobial activity)” as the substance, how does the “Target(s)” value read?
Answer: S. epidermidis; also recorded: M. luteus; also recorded: P. aeruginosa; also recorded: A. baumannii

Question: Which “Target(s)” value does the source give for “PF-256 (EYFKQVYVKNEKIYSFWICKDLSPKEAAKRAEDILVKLK; Peptide with targeting and/or antimicrobial activity)” here?
Answer: S. epidermidis

Question: Which “Target(s)” value does the source give for “PF-259 (LPFSKIGRRVSYKKKDVLKYEQSKTVLNTAQLATV; Peptide with targeting and/or antimicrobial activity)” here?
Answer: S. epidermidis; also recorded: P. aeruginosa; also recorded: A. baumannii

Question: How did the “Target(s)” value turn out when “PF-262 (DPHSEIDVTRYCQLHHFTCQTMQISEREFHYLIETQ; Peptide with targeting and/or antimicrobial activity)” was run?
Answer: S. mutans; also recorded: S. epidermidis; also recorded: M. luteus; also recorded: E. coli; also recorded: P. aeruginosa; also recorded: A. baumannii

Question: “PF-263 (NLKKCPC; Peptide with targeting and/or antimicrobial activity)” was tested. Which “Target(s)” value did it give?
Answer: S. epidermidis; also recorded: M. luteus; also recorded: A. baumannii

Question: Which “Target(s)” value does the source give for “PF-265 (MKTLFFPLFLIIFVLIIQALDQSYQKKIGISKPQKHPEFMQ; Peptide with targeting and/or antimicrobial activity)” here?
Answer: S. epidermidis; also recorded: M. luteus; also recorded: A. baumannii

Question: “PF-266 (DQEKKNKTEESTEQ; Peptide with targeting and/or antimicrobial activity)” was tested. Which “Target(s)” value did it give?
Answer: S. mutans

Question: “PF-267 (SDDKRTD; Peptide with targeting and/or antimicrobial activity)” was tested. Which “Target(s)” value did it give?
Answer: M. luteus

Question: “PF-268 (EVLLSDLRPDIFSET; Peptide with targeting and/or antimicrobial activity)” was tested. Which “Target(s)” value did it give?
Answer: S. mutans

Question: “PF-275 (LVSGVANTVKNTAHTVGNTAKHAGHVAADTTVKATKKQQVK; Peptide with targeting and/or antimicrobial activity)” was tested. Which “Target(s)” value did it give?
Answer: S. mutans

Question: How did the “Target(s)” value turn out when “PF-279 (SHIGFISISACLAVLLGIARLFVWTWVKFFA; Peptide with targeting and/or antimicrobial activity)” was run?
Answer: S. mutans; also recorded: S. epidermidis; also recorded: M. luteus; also recorded: E. coli; also recorded: P. aeruginosa; also recorded: A. baumannii

Question: Which “Target(s)” value does the source give for “PF-281 (SYNTYYNKLIHGQRTPDGM; Peptide with targeting and/or antimicrobial activity)” here?
Answer: S. mutans; also recorded: E. coli

Question: How did the “Target(s)” value turn out when “PF-282 (QNNDTSAWCGSAHKNGNS; Peptide with targeting and/or antimicrobial activity)” was run?
Answer: S. mutans

Question: Which “Target(s)” value does the source give for “PF-284 (MRYITYSLIPRLLSKKVIHQQ; Peptide with targeting and/or antimicrobial activity)” here?
Answer: C. difficile

Question: Which “Target(s)” value does the source give for “PF-285 (VPAKLLRVIDEIPE; Peptide with targeting and/or antimicrobial activity)” here?
Answer: S. mutans

Question: For “PF-288 (IYQLLNIEYSEDD; Peptide with targeting and/or antimicrobial activity)”, which “Target(s)” value is on record?
Answer: S. mutans; also recorded: E. coli

Question: Which “Target(s)” value does the source give for “PF-291 (DVDGAIESEL; Peptide with targeting and/or antimicrobial activity)” here?
Answer: S. mutans; also recorded: E. coli

Question: How did the “Target(s)” value turn out when “PF-295 (NIQVYESECGNYIFKKSDESFLIDIFDKNGTH; Peptide with targeting and/or antimicrobial activity)” was run?
Answer: C. difficile

Question: “PF-299 (LATKLKYEKEHKKM; Peptide with targeting and/or antimicrobial activity)” was tested. Which “Target(s)” value did it give?
Answer: B. subtilis

Question: How did the “Target(s)” value turn out when “PF-300 (VKDVLLELFNKIIGA; Peptide with targeting and/or antimicrobial activity)” was run?
Answer: B. subtilis; also recorded: C. difficile

Question: How did the “Target(s)” value turn out when “PF-304 (LVKDTSDIKNDLNNIEIVTSKNSNDIAKLKSVK; Peptide with targeting and/or antimicrobial activity)” was run?
Answer: S. mutans

Question: How did the “Target(s)” value turn out when “PF-308 (QQYLILDRM; Peptide with targeting and/or antimicrobial activity)” was run?
Answer: C. difficile

Question: With “PF-309 (GIPGMTAAPAEENEQEENADEE; Peptide with targeting and/or antimicrobial activity)” as the substance, how does the “Target(s)” value read?
Answer: S. mutans; also recorded: E. coli

Question: How did the “Target(s)” value turn out when “PF-311 (IDAVTKKKTTCMIRAPTKIPIAHTDN; Peptide with targeting and/or antimicrobial activity)” was run?
Answer: C. difficile

Question: “PF-314 (ECLKKAIKSKALNKAFKIDVPDEVYDNLLMELEEYEK; Peptide with targeting and/or antimicrobial activity)” was tested. Which “Target(s)” value did it give?
Answer: S. mutans
